# Reference: patent publication US11254668B2, “Pyrazolo[1,5-A]pyrazin-4-yl and related derivatives” (Pfizer Inc., priority 2017, dated 2022)
# Like-named read-outs stand apart in the source and are kept apart here.
# Key:
# Type in all cases: biochemical
# TYK2 = TYK2 (Homo sapiens (Human), UniProt P29597); assay: JAK Caliper Enzyme Assay at 1 mM ATP, TYK2
# In short: (§1)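 Recombinant human kinase domains phosphorylate a fluorescent synthetic peptide at 1 mM ATP and room temperature, with enzyme level and time tuned to 20–30% conversion before an EDTA stop. Microfluidic mobility-shift separation gives percent product from peak heights. Percent effect against plate controls (DMSO baseline) is plotted versus compound concentration.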
# JAK1 = JAK1 (Homo sapiens (Human), UniProt P23458); assay: JAK Caliper Enzyme Assay at 1 mM ATP, JAK1
# Sequence of JAK1 (P23458 875-1153): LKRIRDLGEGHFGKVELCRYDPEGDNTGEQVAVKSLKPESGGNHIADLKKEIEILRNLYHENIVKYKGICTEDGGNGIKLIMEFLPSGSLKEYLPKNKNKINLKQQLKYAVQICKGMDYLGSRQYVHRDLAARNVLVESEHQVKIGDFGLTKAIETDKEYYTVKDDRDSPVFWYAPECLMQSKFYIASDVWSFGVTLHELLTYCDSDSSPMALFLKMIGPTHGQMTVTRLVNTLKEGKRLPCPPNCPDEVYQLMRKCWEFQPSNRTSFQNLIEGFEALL
# In short: (§2)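 Recombinant human kinase domains phosphorylate a fluorescent synthetic peptide at 1 mM ATP, room temperature, with enzyme and time tuned for 20-30% conversion; EDTA-stopped. Product/substrate separated by microfluidic mobility shift; percent effect versus DMSO and positive controls fitted to IC50 (nM).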
# JAK2 = JAK2 (Homo sapiens (Human), UniProt O60674); assay: JAK Caliper Enzyme Assay at 1 mM ATP, JAK2
# Sequence of JAK2 (O60674 849-1124): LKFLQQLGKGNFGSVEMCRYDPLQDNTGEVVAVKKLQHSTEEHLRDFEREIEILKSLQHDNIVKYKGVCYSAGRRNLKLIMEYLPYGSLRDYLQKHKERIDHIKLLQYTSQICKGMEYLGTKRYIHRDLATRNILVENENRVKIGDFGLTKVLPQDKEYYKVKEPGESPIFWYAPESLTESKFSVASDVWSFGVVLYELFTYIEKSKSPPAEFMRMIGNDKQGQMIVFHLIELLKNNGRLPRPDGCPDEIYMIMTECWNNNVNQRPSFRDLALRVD
# In short: as §1
# JAK3 = JAK3 (Homo sapiens (Human), UniProt P52333); assay: JAK Caliper Enzyme Assay at 1 mM ATP, JAK3
# Sequence of JAK3 (P52333 822-1111): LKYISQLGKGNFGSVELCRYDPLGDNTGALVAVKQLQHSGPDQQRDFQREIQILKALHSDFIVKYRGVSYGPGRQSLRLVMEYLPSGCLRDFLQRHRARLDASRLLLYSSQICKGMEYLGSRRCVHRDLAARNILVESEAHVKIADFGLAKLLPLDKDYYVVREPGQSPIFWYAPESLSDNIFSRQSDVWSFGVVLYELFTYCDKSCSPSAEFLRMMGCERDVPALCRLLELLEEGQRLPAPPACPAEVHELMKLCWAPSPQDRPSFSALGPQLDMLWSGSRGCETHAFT
# In short: as §2
# Sequence of TYK2 (P29597 897-1176): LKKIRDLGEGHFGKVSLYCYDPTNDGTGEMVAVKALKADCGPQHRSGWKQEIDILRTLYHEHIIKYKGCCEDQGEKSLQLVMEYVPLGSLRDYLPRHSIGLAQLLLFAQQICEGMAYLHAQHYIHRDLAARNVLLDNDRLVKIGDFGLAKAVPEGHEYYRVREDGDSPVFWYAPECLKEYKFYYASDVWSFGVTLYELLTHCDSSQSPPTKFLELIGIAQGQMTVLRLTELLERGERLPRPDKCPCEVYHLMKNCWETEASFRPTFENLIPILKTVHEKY
SMILES,IC50 (TYK2),IC50 (JAK1),IC50 (JAK2),IC50 (JAK3),IC50 (TYK2; JAK Caliper enzyme assay),IC50 (JAK1; JAK Caliper enzyme assay),IC50 (JAK2; JAK Caliper enzyme assay),IC50 (JAK3; JAK Caliper enzyme assay)
"CO[C@H]1C[C@@](CC#N)(n2ccc(-c3nc(-c4ccn[nH]4)cc4ncccc34)n2)C1 [Example 31, (cis-3-methoxy-1-{3-[7-(1H-pyrazol-5-yl)-1,6-naphthyridin-5-yl]-1H-pyrazol-1-yl}cyclobutyl)acetonitrile]",53 nM,1800 nM,955 nM,> 10000 nM,,,,
"N#CC[C@]1(n2ncc(-c3cc(-c4cc(O)ncc4F)cc4ncccc34)n2)C[C@@H](C#N)C1 [Example 387, cis-3-(cyanomethyl)-3-{4-[7-(5-fluoro-2-hydroxpyridin-4-yl)quinolin-5-yl]-2H-1,2,3-triazol-2-yl}cyclobutanecarbonitrile]",,,,,4840 nM,> 10000 nM,> 10000 nM,> 10000 nM
"CS(=O)(=O)N1CC(CC#N)(n2ccc(-c3nc(-c4cnc5cn[nH]c5c4)cc4ncccc34)n2)C1 [Example 166, [1-(methylsulfonyl)-3-{3-[7-(1H-pyrazolo[4,3-b]pyridin-6-yl)-1,6-naphthyridin-5-yl]-1H-pyrazol-1-yl}azetidin-3-yl]acetonitrile]",44 nM,7380 nM,728 nM,> 10000 nM,,,,
"N#CC[C@]1(n2cc(-c3cc(-c4c[nH]nc4N)cc4nccn34)cn2)C[C@@H](C#N)C1 [Example 466, cis-3-{4-[7-(3-amino-1H-pyrazol-4-yl)imidazo[1,2-a]pyridin-5-yl]-1H-pyrazol-1-yl}-3-(cyanomethyl)cyclobutanecarbonitrile]",,,,,73 nM,2700 nM,1260 nM,> 10000 nM
"CS(=O)(=O)N1CC(CC#N)(n2ccc(-c3nc(-c4cnn(C(CO)CCl)c4)cc4ncccc34)n2)C1 (stereo not shown) [Example 130, [3-(3-{7-[1-(1-chloro-3-hydroxypropan-2-yl)-1H-pyrazol-4-yl]-1,6-naphthyridin-5-yl}-1H-pyrazol-1-yl)-1-(methylsulfonyl)azetidin-3-yl]acetonitrile]",32 nM,232 nM,63 nM,9520 nM,,,,
"N#CC[C@]1(n2ncc(-c3cc(-c4cc(N)ncn4)cc4ncccc34)n2)C[C@@H](C#N)C1 [Example 395, cis-3-{4-[7-(6-aminopyrimidin-4-yl)quinolin-5-yl]-2H-1,2,3-triazol-2-yl}-3-(cyanomethyl)cyclobutanecarbonitrile]",,,,,78 nM,6350 nM,774 nM,> 10000 nM
"N#CC[C@]1(n2ncc(-c3cc(-c4ccc(N)nc4)cc4ncccc34)n2)C[C@@H](C#N)C1 [Example 366, cis-3-{4-[7-(6-aminopyridin-3-yl)quinolin-5-yl]-2H-1,2,3-triazol-2-yl}-3-(cyanomethyl)cyclobutanecarbonitrile]",26 nM,520 nM,167 nM,8160 nM,,,,
"N#CCC1(n2ncc(-c3cc(-c4cnc5cccnn45)cc4ncccc34)n2)CC(C#N)C1 (stereo not drawn) [Example 421, cis-3-(cyanomethyl)-3-{4-[7-(imidazo[1,2-b]pyridazin-3-yl)quinolin-5-yl]-2H-1,2,3-triazol-2-yl}cyclobutanecarbonitrile]",,,,,113 nM,1560 nM,353 nM,> 10000 nM
"N#CC[C@]1(n2ncc(-c3cc(-c4cccc(N)n4)cc4ncccc34)n2)C[C@@H](C#N)C1 [Example 358, cis-3-{4-[7-(6-aminopyridin-2-yl)quinolin-5-yl]-2H-1,2,3-triazol-2-yl}-3-(cyanomethyl)cyclobutanecarbonitrile]",20 nM,404 nM,92 nM,3760 nM,,,,
"N#CCC1(n2ccc(-c3nc(-c4ccn[nH]4)cc4ncccc34)n2)CC(CO)C1 (stereo not drawn) [Example 29, [cis-3-(hydroxymethyl)-1-{3-[7-(1H-pyrazol-5-yl)-1,6-naphthyridin-5-yl]-1H-pyrazol-1-yl}cyclobutyl]acetonitrile]",437 nM,3800 nM,2340 nM,> 10000 nM,,,,
"Cc1cn([C@]2(CC#N)C[C@H](C#N)C2)nc1-c1nc(-c2cc(N)n(C)n2)cc2ncccc12 [Example 277, cis-3-{3-[7-(5-amino-1-methyl-1H-pyrazol-3-yl)-1,6-naphthyridin-5-yl]-4-methyl-1H-pyrazol-1-yl}-3-(cyanomethyl)cyclobutanecarbonitrile]",675 nM,> 10000 nM,2300 nM,> 10000 nM,,,,
"N#CC[C@]1(n2ncc(-c3cc(-c4cc(C(N)=O)c(F)cn4)cc4ncccc34)n2)C[C@@H](C#N)C1 [Example 386, 2-(5-{2-[trans-3-cyano-1-(cyanomethyl)cyclobutyl]-2H-1,2,3-triazol-4-yl}quinolin-7-yl)-5-fluoropyridine-4-carboxamide]",,,,,3760 nM,> 10000 nM,> 10000 nM,> 10000 nM
"CS(=O)(=O)N1CC(CC#N)(n2ccc(-c3nc(-c4cnc(N)c(N)c4)cc4ncccc34)n2)C1 [Example 229, [3-{3-[7-(5,6-diaminopyridin-3-yl)-1,6-naphthyridin-5-yl]-1H-pyrazol-1-yl}-1-(methylsulfonyl)azetidin-3-yl]acetonitrile]",81 nM,2460 nM,1000 nM,> 10000 nM,,,,
"Cn1nc(-c2cc(-c3cnn([C@]4(CC#N)C[C@@H](C#N)C4)n3)c3cccnc3c2)cc1CO [Example 309, trans-3-(cyanomethyl)-3-(4-{7-[5-(hydroxymethyl)-1-methyl-1H-pyrazol-3-yl]quinolin-5-yl}-2H-1,2,3-triazol-2-yl)cyclobutanecarbonitrile]",29 nM,1880 nM,163 nM,> 10000 nM,,,,
"COc1ncc(-c2cc3ncccc3c(-c3ccn(C4(CC#N)CN(CC(F)(F)F)C4)n3)n2)cn1 [Example 236, [3-{3-[7-(2-methoxypyrimidin-5-yl)-1,6-naphthyridin-5-yl]-1H-pyrazol-1-yl}-1-(2,2,2-trifluoroethyl)azetidin-3-yl]acetonitrile]",2360 nM,> 10000 nM,> 10000 nM,> 10000 nM,,,,
CN(C)c1ccc(-c2cc3ncccc3c(-c3ccn(C4(CC#N)CN(S(C)(=O)=O)C4)n3)n2)cn1 [Example 203],14 nM,264 nM,86 nM,> 10000 nM,,,,
"Cc1ncc(-c2cc3ncccc3c(-c3ccn(C4(CC#N)CN(S(C)(=O)=O)C4)n3)n2)cc1O [Example 222, [3-{3-[7-(5-hydroxy-6-methylpyridin-3-yl)-1,6-naphthyridin-5-yl]-1H-pyrazol-1-yl}-1-(methylsulfonyl)azetidin-3-yl]acetonitrile]",57 nM,> 10000 nM,1300 nM,> 10000 nM,,,,
"N#CCC1(n2ccc(-c3nc(-c4cn[nH]c4)cc4ncccc34)n2)CC(C#N)C1 (stereo not drawn) [Example 76, cis-3-(cyanomethyl)-3-{3-[7-(1H-pyrazol-4-yl)-1,6-naphthyridin-5-yl]-1H-pyrazol-1-yl}cyclobutanecarbonitrile]",7 nM,35 nM,33 nM,1540 nM,,,,
"N#CC[C@]1(n2ccc(-c3nc(-c4ccnc(C(N)=O)n4)cc4ncccc34)n2)C[C@H](C#N)C1 [Example 244, 4-(5-{1-[cis-3-cyano-1-(cyanomethyl)cyclobutyl]-1H-pyrazol-3-yl}-1,6-naphthyridin-7-yl)pyrimidine-2-carboxamide]",424 nM,> 10000 nM,> 10000 nM,> 10000 nM,,,,
"N#CC[C@]1(n2cc(-c3cc(-c4cn[nH]c4)cc4nccn34)cn2)C[C@@H](C#N)C1 [Example 456, cis-3-(cyanomethyl)-3-{4-[7-(1H-pyrazol-4-yl)imidazo[1,2-a]pyridin-5-yl]-1H-pyrazol-1-yl}cyclobutanecarbonitrile]",,,,,126 nM,1310 nM,812 nM,> 10000 nM
"N#CC[C@]1(n2ccc(-c3nc(-c4ccn[nH]4)cc4ncccc34)n2)C[C@H](C#N)C1 [Example 20, trans-3-(cyanomethyl)-3-{3-[7-(1H-pyrazol-5-yl)-1,6-naphthyridin-5-yl]-1H-pyrazol-1-yl}cyclobutanecarbonitrile]",25 nM,381 nM,240 nM,> 10000 nM,,,,
"N#CCC1(n2ncc(-c3cc(-c4cc[nH]n4)cc4ncccc34)n2)CN(S(=O)(=O)C2CC2)C1 [Example 299, [1-(cyclopropylsulfonyl)-3-{4-[7-(1H-pyrazol-3-yl)quinolin-5-yl]-2H-1,2,3-triazol-2-yl}azetidin-3-yl]acetonitrile]",10 nM,280 nM,252 nM,> 10000 nM,,,,
"N#CCC1(n2ncc(-c3cc(-c4cc(C(N)=O)ccn4)cc4ncccc34)n2)CC(C#N)C1 (stereo not drawn) [Example 353, 2-(5-{2-[cis-3-cyano-1-(cyanomethyl)cyclobutyl]-2H-1,2,3-triazol-4-yl}quinolin-7-yl)pyridine-4-carboxamide]",1570 nM,9630 nM,> 10000 nM,> 10000 nM,,,,
"CCN1CC(CC#N)(n2ccc(-c3nc(-c4cc(N)n(C)n4)cc4ncccc34)n2)C1 [Example 64, (3-{3-[7-(5-amino-1-methyl-1H-pyrazol-3-yl)-1,6-naphthyridin-5-yl]-1H-pyrazol-1-yl}-1-ethylazetidin-3-yl)acetonitrile]",440 nM,> 10000 nM,5900 nM,> 10000 nM,,,,
"N#CCC1(n2ncc(-c3cc(-c4ccc(C(=O)O)cc4)cc4ncccc34)n2)CC(C#N)C1 (stereo not drawn) [Example 436, 4-(5-{2-[trans-3-cyano-1-(cyanomethyl)cyclobutyl]-2H-1,2,3-triazol-4-yl}quinolin-7-yl)benzoic acid]",,,,,75 nM,1490 nM,1130 nM,> 10000 nM
